The text below walks through data of patent publication US20200138827A1, “SMALL MOLECULE MODULATORS OF HUMAN STING” (Curadev Pharma Limited, priority 2017, published 2020).

As usually defined, the EC50 is the concentration needed to bring the measured effect to its halfway point.

The structures appear in SMILES notation. A value given as a limit tells only on which side of the number the result lay.

T1 sequence (Q86WV6 whole entry H232R): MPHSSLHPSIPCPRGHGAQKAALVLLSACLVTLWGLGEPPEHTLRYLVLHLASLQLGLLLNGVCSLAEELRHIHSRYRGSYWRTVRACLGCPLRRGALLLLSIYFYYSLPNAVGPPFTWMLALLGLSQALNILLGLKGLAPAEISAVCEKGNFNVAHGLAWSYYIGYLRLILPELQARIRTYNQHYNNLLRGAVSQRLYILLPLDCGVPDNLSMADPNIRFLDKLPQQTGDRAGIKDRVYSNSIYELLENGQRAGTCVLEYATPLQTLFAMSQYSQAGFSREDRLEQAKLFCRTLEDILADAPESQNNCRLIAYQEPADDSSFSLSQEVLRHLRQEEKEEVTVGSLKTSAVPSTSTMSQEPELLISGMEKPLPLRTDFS

The assay has as its target T1, WT/R232 STING protein (Homo sapiens, UniProt Q86WV6, H232R).
T1 construct: host or cells: HEK293T
As to the kind of experiment: Luciferase reporter assay in HEK293T-hSTING-Luciferase cells, WT/R232. The note with it: 20 hr stimulation, read-out: R232 Activity (EC50 range). Format: cell-based. The source says: • a) Stable STING expressing cells—Stable HEK293T STING-expressing cell lines were generated using plasmids purchased from Invivogen, Calif., USA, that contain STING cDNA cloned into the pUNO-1 vector under hEF1-HTLV promoter and containing the Blasticidin selection cassette. The plasmids hSTING(R232), hSTING(H232), hSTING(HAQ) were directly procured from Invivogen while hSTING (AQ) and hSTING (Q) were derived from hSTING(HAQ) and hSTING (R232) plasmids respectively by using a PCR based site directed mutagenesis method. These vectors were individually transfected into HEK293T cells using Lipofectamine (Invitrogen) and transfected cells were selected under Blasticidin selection. These transfected cells were further subjected to clonal selection using the limiting dilution method to obtain clonally pure populations of HEK cells transfected with each of the above mentioned human STING variants. Only those clones were selected in which ligand independent activation of STING was minimal. • b) Stable Luciferase reporter gene expressing cells—Stable HEK293T Luciferase reporter gene expressing cell lines were generated using pCDNA4 plasmids under an IRF-inducible promoter. This promoter is comprised of five tandem interferon-stimulated response elements (ISRE) fused to an ISG54 minimal promoter. This vector was transfected into HEK293T cells using Lipofectamine (Invitrogen) and transfected cells were selected under Zeocin selection. These transfected cells were further subjected to clonal selection using the limiting dilution method to obtain clonally pure populations of HEK cells transfected the Luciferase reporter construct. Only those clones were selected in which ligand independent induction of luciferase was minimal.
5×10^5 clonally selected HEK293T-hSTING-Luciferase cells were seeded in 384-well plates in growth medium and stimulated with novel compounds. After 20 hr of stimulation supernatant were removed and secretary reporter gene activity were measured using the Quanti-Luc detection system (Invivogen) on a Spectramax i3X luminometer.
All compounds were first tested in a primary screen using WT/R232 STING protein to obtain a ‘fold-induction’ over baseline levels of protein activity.
Turning to `O=C(NCc1ccco1)c1ccc2c(c1)N(Cc1ccccc1Cl)C(=O)CS2` [Example 1, 4-(2-chlorobenzyl)-N-(furan-2-ylmethyl)-3-oxo-3,4-dihydro-2H-benzo[b-1,4]thiazine-6-carboxamide], the EC50 is above 10 µM. Turning to `O=C(CN1C(=O)CSc2ccc(C(=O)NCc3ccco3)cc21)c1ccccc1` [Example 2, N-(furan-2-ylmethyl)-3-oxo-4-(2-oxo-2-phenylethyl)-3,4-dihydro-2H-benzo[b][1,4] thiazine-6-carboxamide], the EC50 is above 10 µM.

For `O=C(NCc1ccco1)c1ccc2c(c1)N(CC(=O)N1CCc3ccccc31)C(=O)CS2` [Example 3, N-(furan-2-ylmethyl)-4-(2-(indolin-1-yl)-2-oxoethyl)-3-oxo-3,4-dihyrdo-2H-benzo[b-1,4]thiazine-6-carboxamide], the half-maximal effective concentration (EC50) was above 10 µM. Under `O=C(CN1C(=O)CSc2ccc(C(=O)NCc3ccco3)cc21)Nc1ccncc1` [Example 4, N-(furan-2-ylmethyl)-3-oxo-4-(2-oxo-2-(pyridin-4-ylamino)ethyl)-3,4-dihydro-2H-benzo[b-1,4]-thiazine-6-carboxamide] stands above 10 µM; under `O=C(CN1C(=O)CSc2ccc(C(=O)NCc3ccco3)cc21)Nc1ccccc1` [Example 5, N-(furan-2-ylmethyl)-3-oxo-4-(2-oxo-2-(phenylamino)ethyl)-3,4-dihydro-2H-benzo[b-1,4]thiazine-6-carboxamide], above 10 µM. In the case of `O=C(NCc1ccco1)c1ccc2c(c1)N(Cc1nc3ccccc3s1)C(=O)CS2` [Example 6, 4-(benzo[d]thiazol-2-ylmethyl)-N-(furan-2-ylmethyl)-3-oxo-3,4-dihydro-2H-benzo[b-1,4]thiazine-6-carboxamide], the EC50 was above 10 µM. For the molecule `O=C(NCc1ccco1)c1ccc2c(c1)N(Cc1nc3ccccc3o1)C(=O)CS2` [Example 7], the concentration for a half-maximal effect (EC50) was above 10 µM. In the case of `O=C(NCc1ccco1)c1ccc2c(c1)N(CCc1ccccc1)C(=O)CS2` [Example 8, N-(furan-2-ylmethyl)-3-oxo-4-phenethyl-3,4-dihydro-2H-benzo[b-1,4]thiazine-6-carboxamide], the EC50 was above 10 µM.

With `Nc1ncc(NC(=O)CN2C(=O)CSc3ccc(C(=O)NCc4ccco4)cc32)cn1` [Example 9, 4-(2-((2-amino-pyrimidin-5-yl)amino)-2-oxoethyl)-N-(furan-2-ylmethyl)-3-oxo-3,4-dihydro-2H-benzo[b-1,4]thiazine-6-carboxamide], the half-maximal effective concentration (EC50) was above 10 µM. As to `Cn1cccc1CNC(=O)c1ccc2c(c1)N(Cc1ccccc1)C(=O)CS2` [Example 10, 4-benzyl-N-((1-methyl-1H-pyrrol-2-yl)methyl)-3-oxo-3,4-dihydro-2H-benzo[b-1,4]thiazine-6-carboxamide], the concentration giving a half-maximal response (EC50) was above 10 µM.

In the case of `O=C(NCc1ccco1)c1ccc2c(c1)N(Cc1cccc(Cl)c1Cl)C(=O)CS2` [Example 11, 4-(2,3-dichloro-benzyl)-N-(furan-2-ylmethyl)-3-oxo-3,4-dihydro-2H-benzo[b-1,4]thiazine-6-carboxamide], the concentration giving a half-maximal response (EC50) fell in the range of 1 to 10 µM. Under `Cc1cccc(CN2C(=O)CSc3ccc(C(=O)NCc4ccco4)cc32)c1C` [Example 12, 4-(2,3-dimethyl-benzyl)-N-(furan-2-ylmethyl)-3-oxo-3,4-dihydro-2H-benzo[b-1,4]thiazine-6-caroxamide] stands 1 to 10 µM; under `Cc1cccc(C)c1CN1C(=O)CSc2ccc(C(=O)NCc3ccco3)cc21` [Example 13, 4-(2,6-dimethyl-benzyl)-N-(furan-2-ylmethyl)-3-oxo-3,4-dihydro-2H-benzo[b-1,4]thiazine-6-carboxamide], 1 to 10 µM; under `O=C(NCc1ccco1)c1ccc2c(c1)N(Cc1cccc3ccccc13)C(=O)CS2` [Example 14, N-(furan-2-ylmethyl)-4-(naphthalen-1-ylmethyl)-3-oxo-3,4-dihydro-2H-benzo[b-1,4]thiazine-6-carboxamide], 1 to 10 µM. Take `O=C(NCc1ccco1)c1ccc2c(c1)N(CC1CCCCC1)C(=O)CS2` [Example 15, 4-(cyclohexyl-methyl)-N-(furan-2-ylmethyl)-3-oxo-3,4-dihydro-2H-benzo[b-1,4]thiazine-6-carboxamide]: the EC50 was above 10 µM.

Regarding `O=C(NCC1CCCCC1)c1ccc2c(c1)N(Cc1ccccc1F)C(=O)CS2` [Example 16, N-(cyclo-hexylmethyl)-4-(2-fluoro-benzyl)-3-oxo-3,4-dihydro-2H-benzo[b-1,4]thiazine-6-carboxamide], the 50% effective concentration (EC50) was 1 to 10 µM.

Regarding `O=C(NCc1ccco1)c1ccc2c(c1)N(CC(O)c1ccccc1)C(=O)CS2` (stereo not shown) [Example 17, N-(furan-2-ylmethyl)-4-(2-hydroxy-2-phenylethyl)-3-oxo-3,4-dihydro-2H-benzo[b-1,4]thiazine-6-carboxamide], the concentration giving a half-maximal response (EC50) is above 10 µM. In the case of `C[C@H](NC(=O)c1ccc2c(c1)N(Cc1ccccc1F)C(=O)CS2)C1CCCCC1` [Example 18, (S)-N-(1-cyclohexyl-ethyl)-4-(2-fluorobenzyl)-3-oxo-3,4-dihydro-2H-benzo[b-1,4]thiazine-6-carboxamide], the EC50 is above 10 µM. Consider `C[C@@H](NC(=O)c1ccc2c(c1)N(Cc1ccccc1F)C(=O)CS2)C1CCCCC1` [Example 19, (R)-N-(1-cyclohexyl-ethyl)-4-(2-flurobenzyl)-3-oxo-3,4-dihydro-2H-benzo[b-1,4]thiazine-6-carboxamide], for which the 50% effective concentration (EC50) was above 10 µM. As to `O=C(NCC1CC1)c1ccc2c(c1)N(Cc1ccccc1F)C(=O)CS2` [Example 20, N-(cyclopropyl-methyl)-4-(2-fluorobenzyl)-3-oxo-3,4-dihydro-2H-benzo[b-1,4]thiazine-6-carboxamide], the 50% effective concentration (EC50) was above 10 µM.

Take `O=C(NCc1c(F)cccc1Cl)c1ccc2c(c1)N(Cc1c(F)cccc1Cl)C(=O)CS2` [Example 21, N,4-bis(2-chloro-6-fluorobenzyl)-3-oxo-3,4-dihydro-2H-benzo[b-1,4]thiazine-carboxamide]: the EC50 is 1 to 10 µM. In the case of `CC1(C)C2CC(CNC(=O)c3ccc4c(c3)N(Cc3ccccc3F)C(=O)CS4)CC1C2` (stereo not shown) [Example 22, N-((6,6-dimethyl-bicyclo[3.1.1]heptan-3-yl)methyl)-4-(2-fluorobenzyl)-3-oxo-3,4-dihydro-2H-benzo[b-1,4]thiazine 6-carboxamide], the half-maximal effective concentration (EC50) is above 10 µM. On to `CC(NC(=O)c1ccc2c(c1)N(Cc1ccccc1F)C(=O)CS2)C12C[C@H]3C[C@@H](C1)C[C@@H](C2)C3` (stereo partly shown) [Example 23, N-(1-((3r,5r,7r)-adamantan-1-yl)ethyl)-4-(2-fluorobenzyl)-3-oxo-3,4-dihydro-2H-benzo[b-1,4]thiazine-6-carboxamide], for which the EC50 is above 10 µM. `O=C(NCC12C[C@H]3C[C@@H](C1)C[C@@H](C2)C3)c1ccc2c(c1)N(Cc1ccccc1F)C(=O)CS2` [Example 24, N-((3r,5r,7r)-adamantan-1-ylmethyl)-4-(2-fluorobenzyl)-3-oxo-3,4-dihydro-2H-benzo[b-1,4]thiazine-6-carboxamide]: the EC50 is above 10 µM. As to `Cc1cccc(CN2C(=O)CSc3ccc(C(=O)NCC4CCCCC4)cc32)c1C` [Example 25, N-(cyclohexyl-methyl)-4-(2,3-dimethyl-benzyl)-3-oxo-3,4-dihydro-2H-benzo[b-1,4]thiazine-6-carboxamide], the EC50 is above 10 µM.
